Measured values: patent US8466089B2, “Pyrazole compounds, process for their production and herbicides containing them” (Ishihara Sangyo Kaisha, Ltd., priority 2008, dated 2013)

What was measured:
Format in all cases: in vivo
[1] = system: rice (Oryza sativa L.) (var.: Nihonbare); experiment: Test Example 3, paddy field pot, transplanted rice; conditions: applied 4th day after transplantation, 20th to 23rd day after application, read-out: Growth inhibition rate (%) Rice
Summary of the method: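 Weeds were sown or planted in flooded paddy-soil pots and treated in the water at 0.5-leaf or primary-leaf stage. Rice (Nihonbare), transplanted at two-leaf stage 3 cm deep, was treated on day 4. Diluted wettable powder or emulsifiable concentrate was used, and growth inhibition (0–100%) was scored visually at 13–17 days for weeds and 20–23 days for rice.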

[2] = system: green foxtail (Setaria viridis L.); experiment: Test Example 2, soil application on the day after sowing; conditions: 21st to 22nd day after application, visual, read-out: Growth inhibition rate (%) Green foxtail
Summary of the method: (§1)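 Visual growth inhibition rate (%) at 21 to 22 days after treatment, where 0 matches untreated and 100 is complete kill. Compounds were applied to the soil surface one day after sowing with a small sprayer, at a water volume of 500 L per hectare.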

[3] = system: velvetleaf (Abutilon theophrasti MEDIC.); experiment: as above; conditions: 21st to 22nd day after application, visual, read-out: Growth inhibition rate (%) Velvetleaf
Summary of the method: as §1

[4] = system: rice (Oryza sativa L.); experiment: as above; conditions: 21st to 22nd day after application, visual, read-out: Growth inhibition rate (%) Rice
Summary of the method: as §1

[5] = system: crabgrass (Digitaria sanquinalis L.); experiment: as above; conditions: 21st to 22nd day after application, visual, read-out: Growth inhibition rate (%) Crabgrass
Summary of the method: as §1

[6] = system: prickly sida (Sida spinosa L.); experiment: as above; conditions: 21st to 22nd day after application, visual, read-out: Growth inhibition rate (%) Prickly sida
Summary of the method: as §1

[7] = system: corn (Zea mays L.); experiment: as above; conditions: 21st to 22nd day after application, visual, read-out: Growth inhibition rate (%) Corn
Summary of the method: as §1

[8] = system: redroot pigweed (Amaranthus retroflexus L.); experiment: as above; conditions: 21st to 22nd day after application, visual, read-out: Growth inhibition rate (%) Redroot pigweed
Summary of the method: as §1

[9] = system: soybean (Glycine max Merr.); experiment: as above; conditions: 21st to 22nd day after application, visual, read-out: Growth inhibition rate (%) Soybean
Summary of the method: as §1

[10] = system: barnyardgrass (Echinochloa crus-galli L.); experiment: as above; conditions: 21st to 22nd day after application, visual, read-out: Growth inhibition rate (%) Barnyardgrass
Summary of the method: as §1

[11] = system: wheat (Triticum spp.); experiment: as above; conditions: 21st to 22nd day after application, visual, read-out: Growth inhibition rate (%) Wheat
Summary of the method: as §1

[12] = system: green foxtail (Setaria viridis L.); experiment: Test Example 1, foliar treatment in upland pots; conditions: 20th to 22nd day after application, visual, read-out: Growth inhibition rate (%) Green foxtail
Summary of the method: (§2)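 Sow seeds in upland field soil; grow to set leaf stage (soybean primary leaf–0.3, corn 2.0–3.3, green foxtail 1.5–3.0, rice 1.2–2.5); spray foliage with formulation diluted to 500 L/ha water containing 0.1 vol% spreader at prescribed a.i. rate; score inhibition % at days 20–22.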

[13] = system: rice (Oryza sativa L.); experiment: Test Example 1, foliar treatment in upland pots; conditions: 20th to 22nd day after application, visual, read-out: Growth inhibition rate (%) Rice
Summary of the method: as §2

[14] = system: corn (Zea mays L.); experiment: Test Example 1, foliar treatment in upland pots; conditions: 20th to 22nd day after application, visual, read-out: Growth inhibition rate (%) Corn
Summary of the method: as §2

[15] = system: redroot pigweed (Amaranthus retroflexus L.); experiment: Test Example 1, foliar treatment in upland pots; conditions: 20th to 22nd day after application, visual, read-out: Growth inhibition rate (%) Redroot pigweed

Row | SMILES | inhibition at 63 g/ha [1] | inhibition at 250 g/ha [2] | inhibition at 250 g/ha [3] | inhibition at 250 g/ha [4] | inhibition at 250 g/ha [5] | inhibition at 250 g/ha [6] | inhibition at 250 g/ha [7] | inhibition at 250 g/ha [8] | inhibition at 250 g/ha [9] | inhibition at 250 g/ha [10] | inhibition at 250 g/ha [11] | inhibition at 7 g/ha [12] | inhibition at 7 g/ha [13] | inhibition at 7 g/ha [14] | inhibition at 7 g/ha [15]
1 | COCCOc1c(S(C)(=O)=O)ccc(C(=O)c2c(C)nn(C)c2OC(C)OC(=O)OC)c1C (stereo not drawn) [Compound No. 1-6, 1-(4-(3-(2-Methoxyethoxy)-2-methyl-4-(methylsulfonyl)benzoyl)-1,3-dimethyl-1H-pyrazol-5-yloxy)ethyl methyl carbonate] | 30% | 70% | 100% | 98% | 100% | 99% | 0% | 100% | 0% | 100% | 5% | 95% | 70% | 0% | 90%
2 | COCCOc1c(S(C)(=O)=O)ccc(C(=O)c2c(C)nn(C)c2O)c1C [Compound No. 5-2, (5-Hydroxy-1,3-dimethyl-1H-pyrazol-4-yl)(3-(2-methoxyethoxy)-2-methyl-4-(methylsulfonyl)phenyl)ketone] | 20% | 60% | 70% | 10% | 100% | 0% | 0% | 90% | 20% | 10% | 0% | 100% | 50% | 0% | 90%
3 | Cc1c(C(=O)c2cnn(C)c2O)ccc(S(C)(=O)=O)c1OCCC(C)C [Compound No. 5-1, (5-Hydroxy-1-methyl-1H-pyrazol-4-yl)(3-(2-isopropylethoxy)-2-methyl-4-(methylsulfonyl)phenyl)ketone] | 30% | 95% | 100% | 98% | 98% | 98% | 10% | 100% | 0% | 98% | 20% | 50% | 0% | 0% | 60%
4 | COC(=O)OC(C)Oc1c(C(=O)c2ccc(S(C)(=O)=O)c(C(=O)OC)c2C)cnn1C (stereo not drawn) [Compound No. 1-2, Methyl 3-(5-(1-(methoxycarbonyloxy)ethoxy)-1-methyl-1H-pyrazole-4-carbonyl)-2-methyl-6-(methylsulfonyl)benzoate] | 40% | 100% | 100% | 100% | 100% | 98% | 0% | 100% | 70% | 100% | 20% | 100% | 70% | 0% | 95%
5 | CCc1nn(C)c(O)c1C(=O)c1ccc(S(C)(=O)=O)c(OCCOC)c1C [Compound No. 5-3, (5-Hydroxy-1-methyl-3-ethyl-1H-pyrazol-4-yl)(3-(2-methoxyethoxy)-2-methyl-4-(methylsulfonyl)phenyl)ketone] | 20% | 60% | 30% | 20% | 95% | 20% | 20% | 100% | 0% | 50% | 0% | 90% | 50% | 0% | 95%
